Results: PubChem BioAssay (NCI)
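Each compound was tested at five concentrations against cells in 96-well plates for 48 hours. GI50: concentration for 50% inhibition of growth. Definition used: TGI = concentration required for complete inhibition of growth.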

Legend:
Experiment in all cases: growth of human tumour cells (NCI), 48 h
[1] = test system: HOP-92 NSCLC
[2] = test system: MOLT-4 leukemia
[3] = test system: SF-539 CNS
[4] = test system: PC-3 prostate
[5] = test system: RPMI-8226 leukemia
[6] = test system: EKVX NSCLC
[7] = test system: SNB-19 CNS
[8] = test system: SK-MEL-28 melanoma
[9] = test system: RXF 393 renal
[10] = test system: UO-31 renal
[11] = test system: MDA-MB-231 breast
[12] = test system: A498 renal
[13] = test system: OVCAR-5 ovarian
[14] = test system: BT-549 breast
[15] = test system: SF-295 CNS
[16] = test system: NCI-H522 lung
[17] = test system: CCRF-CEM leukemia
[18] = test system: K-562 leukemia
[19] = test system: SW-620 colon
[20] = test system: SK-MEL-2 melanoma
[21] = test system: MALME-3M melanoma
[22] = test system: OVCAR-4 ovarian
[23] = test system: ACHN renal
[24] = test system: LOX IMVI melanoma
[25] = test system: HS 578T breast
[26] = test system: SF-268 CNS
[27] = test system: NCI-H460 lung
[28] = test system: IGROV1 ovarian
[29] = test system: U251 CNS
[30] = test system: CAKI-1 renal
[31] = test system: T-47D breast
[32] = test system: TK-10 renal
[33] = test system: HCT-116 colon
[34] = test system: HOP-62 NSCLC
[35] = test system: OVCAR-3 ovarian
[36] = test system: UACC-62 melanoma
[37] = test system: NCI-H226 lung
[38] = test system: SK-OV-3 ovarian
[39] = test system: KM12 colon
[40] = test system: SNB-75 CNS
[41] = test system: SN12C renal
[42] = test system: 786-0 renal
[43] = test system: HT29 colon
[44] = test system: HCT-15 colon
[45] = test system: SK-MEL-5 melanoma
[46] = test system: COLO 205 colon
[47] = test system: NCI/ADR-RES ovarian
[48] = test system: MDA-MB-435
[49] = test system: M14 melanoma
[50] = test system: MCF7 breast
[51] = test system: DU-145 prostate
[52] = test system: NCI-H23 lung
[53] = test system: OVCAR-8 ovarian
[54] = test system: UACC-257 melanoma
[55] = test system: HCC-2998 colon
[56] = test system: A549 NSCLC

**Q.** What does the source list for `CO[C@@H]1[C@H](O)CC[C@]2(CO2)[C@H]1[C@@]1(C)O[C@@H]1CC=C(C)C`?
**A.** TGI [1]: > 200 µM; TGI [2]: > 200 µM; TGI [3]: > 200 µM; TGI [4]: > 200 µM; TGI [5]: > 200 µM; TGI [6]: > 200 µM; TGI [7]: > 200 µM; TGI [8]: > 200 µM; TGI [9]: > 200 µM; TGI [10]: > 200 µM; TGI [11]: > 200 µM; TGI [12]: > 200 µM; TGI [13]: > 200 µM; TGI [14]: > 200 µM; TGI [15]: > 200 µM; TGI [16]: > 200 µM; TGI [17]: > 200 µM; TGI [18]: > 200 µM; TGI [19]: > 200 µM; TGI [20]: > 200 µM; TGI [21]: > 200 µM; TGI [22]: > 200 µM; TGI [23]: > 200 µM; TGI [24]: > 200 µM; TGI [25]: > 200 µM; TGI [26]: > 200 µM; TGI [27]: > 200 µM; TGI [28]: > 200 µM; TGI [29]: > 200 µM; TGI [30]: > 200 µM; TGI [31]: > 200 µM; TGI [32]: > 200 µM; TGI [33]: > 200 µM; TGI [34]: > 200 µM; TGI [35]: > 200 µM; TGI [36]: > 200 µM; TGI [37]: > 200 µM; TGI [38]: > 200 µM; TGI [39]: > 200 µM; TGI [40]: > 200 µM; TGI [41]: > 200 µM; TGI [42]: > 200 µM; TGI [43]: > 200 µM; TGI [44]: > 200 µM; TGI [45]: > 200 µM; TGI [46]: > 200 µM; TGI [47]: > 200 µM; TGI [48]: > 200 µM; TGI [49]: > 200 µM; TGI [50]: > 200 µM; TGI [51]: > 200 µM; TGI [52]: > 200 µM

**Q.** Which GI50 [1] does the source give for `Nc1ncc2ccc3c(ccn3C3CC(O)C(CO)O3)c2n1` (configuration not stated) here?
**A.** > 100 µM

**Q.** And the TGI [1]?
**A.** > 100 µM

**Q.** And the GI50 [3]?
**A.** > 100 µM

**Q.** What about the TGI [3] of the same molecule?
**A.** > 100 µM

**Q.** And the GI50 [4]?
**A.** > 100 µM

**Q.** What about the TGI [4] of the same molecule?
**A.** > 100 µM

**Q.** And the GI50 [5]?
**A.** > 100 µM

**Q.** And the TGI [5]?
**A.** > 100 µM

**Q.** And the GI50 [6]?
**A.** > 100 µM

**Q.** And the TGI [6]?
**A.** > 100 µM

**Q.** What about the GI50 [7] of the same molecule?
**A.** > 100 µM

**Q.** And the TGI [7]?
**A.** > 100 µM

**Q.** What about the GI50 [8] of the same molecule?
**A.** > 100 µM

**Q.** And the TGI [8]?
**A.** > 100 µM

**Q.** And the GI50 [9]?
**A.** > 100 µM

**Q.** And the TGI [9]?
**A.** > 100 µM

**Q.** What about the GI50 [10] of the same molecule?
**A.** > 100 µM

**Q.** What about the TGI [10] of the same molecule?
**A.** > 100 µM

**Q.** And the GI50 [11]?
**A.** > 100 µM

**Q.** What about the TGI [11] of the same molecule?
**A.** > 100 µM

**Q.** What about the GI50 [12] of the same molecule?
**A.** 18.3 µM

**Q.** And the TGI [12]?
**A.** > 100 µM

**Q.** What about the GI50 [13] of the same molecule?
**A.** > 100 µM

**Q.** What about the TGI [13] of the same molecule?
**A.** > 100 µM

**Q.** What about the GI50 [14] of the same molecule?
**A.** > 100 µM

**Q.** What about the TGI [14] of the same molecule?
**A.** > 100 µM

**Q.** What about the GI50 [15] of the same molecule?
**A.** > 100 µM

**Q.** What about the TGI [15] of the same molecule?
**A.** > 100 µM

**Q.** What about the GI50 [16] of the same molecule?
**A.** > 100 µM

**Q.** And the TGI [16]?
**A.** > 100 µM

**Q.** What about the GI50 [17] of the same molecule?
**A.** > 100 µM

**Q.** What about the TGI [17] of the same molecule?
**A.** > 100 µM

**Q.** What about the GI50 [19] of the same molecule?
**A.** > 100 µM

**Q.** And the TGI [19]?
**A.** > 100 µM

**Q.** What about the GI50 [53] of the same molecule?
**A.** > 100 µM

**Q.** And the TGI [53]?
**A.** > 100 µM

**Q.** And the GI50 [20]?
**A.** > 100 µM

**Q.** And the TGI [20]?
**A.** > 100 µM

**Q.** What about the GI50 [22] of the same molecule?
**A.** > 100 µM

**Q.** What about the TGI [22] of the same molecule?
**A.** > 100 µM

**Q.** And the GI50 [24]?
**A.** > 100 µM

**Q.** And the TGI [24]?
**A.** > 100 µM

**Q.** What about the GI50 [25] of the same molecule?
**A.** > 100 µM

**Q.** And the TGI [25]?
**A.** > 100 µM

**Q.** And the GI50 [54]?
**A.** > 100 µM

**Q.** And the TGI [54]?
**A.** > 100 µM

**Q.** And the GI50 [26]?
**A.** > 100 µM

**Q.** What about the TGI [26] of the same molecule?
**A.** > 100 µM

**Q.** What about the GI50 [27] of the same molecule?
**A.** > 100 µM

**Q.** And the TGI [27]?
**A.** > 100 µM

**Q.** And the GI50 [28]?
**A.** > 100 µM

**Q.** What about the TGI [28] of the same molecule?
**A.** > 100 µM

**Q.** What about the GI50 [29] of the same molecule?
**A.** > 100 µM

**Q.** What about the TGI [29] of the same molecule?
**A.** > 100 µM

**Q.** And the GI50 [30]?
**A.** > 100 µM

**Q.** What about the TGI [30] of the same molecule?
**A.** > 100 µM

**Q.** What about the GI50 [31] of the same molecule?
**A.** > 100 µM

**Q.** What about the TGI [31] of the same molecule?
**A.** > 100 µM

**Q.** And the GI50 [33]?
**A.** > 100 µM

**Q.** What about the TGI [33] of the same molecule?
**A.** > 100 µM

**Q.** And the GI50 [34]?
**A.** > 100 µM

**Q.** And the TGI [34]?
**A.** > 100 µM

**Q.** And the GI50 [35]?
**A.** > 100 µM

**Q.** What about the TGI [35] of the same molecule?
**A.** > 100 µM

**Q.** What about the GI50 [36] of the same molecule?
**A.** > 100 µM

**Q.** What about the TGI [36] of the same molecule?
**A.** > 100 µM

**Q.** What about the GI50 [37] of the same molecule?
**A.** > 100 µM

**Q.** And the TGI [37]?
**A.** > 100 µM

**Q.** And the GI50 [38]?
**A.** > 100 µM

**Q.** And the TGI [38]?
**A.** > 100 µM

**Q.** What about the GI50 [40] of the same molecule?
**A.** 42.4 µM

**Q.** What about the TGI [40] of the same molecule?
**A.** > 100 µM

**Q.** What about the GI50 [41] of the same molecule?
**A.** > 100 µM

**Q.** And the TGI [41]?
**A.** > 100 µM

**Q.** What about the GI50 [42] of the same molecule?
**A.** > 100 µM

**Q.** What about the TGI [42] of the same molecule?
**A.** > 100 µM

**Q.** What about the GI50 [43] of the same molecule?
**A.** > 100 µM

**Q.** What about the TGI [43] of the same molecule?
**A.** > 100 µM

**Q.** And the GI50 [55]?
**A.** > 100 µM

**Q.** What about the TGI [55] of the same molecule?
**A.** > 100 µM

**Q.** And the GI50 [44]?
**A.** > 100 µM

**Q.** What about the TGI [44] of the same molecule?
**A.** > 100 µM

**Q.** What about the GI50 [45] of the same molecule?
**A.** > 100 µM

**Q.** And the TGI [45]?
**A.** > 100 µM

**Q.** And the GI50 [46]?
**A.** > 100 µM

**Q.** And the TGI [46]?
**A.** > 100 µM

**Q.** And the GI50 [47]?
**A.** > 100 µM

**Q.** What about the TGI [47] of the same molecule?
**A.** > 100 µM

**Q.** What about the GI50 [48] of the same molecule?
**A.** > 100 µM

**Q.** What about the TGI [48] of the same molecule?
**A.** > 100 µM

**Q.** What about the GI50 [49] of the same molecule?
**A.** > 100 µM

**Q.** And the TGI [49]?
**A.** > 100 µM

**Q.** What about the GI50 [50] of the same molecule?
**A.** 87.2 µM

**Q.** What about the TGI [50] of the same molecule?
**A.** > 100 µM

**Q.** And the GI50 [56]?
**A.** > 100 µM

**Q.** And the TGI [56]?
**A.** > 100 µM

**Q.** What about the GI50 [51] of the same molecule?
**A.** > 100 µM

**Q.** And the TGI [51]?
**A.** > 100 µM

**Q.** And the GI50 [52]?
**A.** > 100 µM

**Q.** What about the TGI [52] of the same molecule?
**A.** > 100 µM
